Results reported in ChEMBL document CHEMBL3627608, “Crystal structures of human RIP2 kinase catalytic domain complexed with ATP-competitive inhibitors: Foundations for understanding inhibitor selectivity” (Bioorg Med Chem, 2015).

Key:
[1] = molecular target: Homeodomain-interacting protein kinase 3 (Homo sapiens) (UniProt Q9H422); experiment: Inhibition of HIPK3 (unknown origin) at 10 uM after 120 mins P33 radiolabeled kinase activity assay
[2] = molecular target: Serine/threonine-protein kinase PLK2 (Homo sapiens) (UniProt Q9NYY3); experiment: Inhibition of PLK2 (unknown origin) at 10 uM after 120 mins P33 radiolabeled kinase activity assay
[3] = molecular target: Misshapen-like kinase 1 (Homo sapiens) (UniProt Q8N4C8); experiment: Inhibition of MINK (unknown origin) at 10 uM after 120 mins P33 radiolabeled kinase activity assay
Sequence of Misshapen-like kinase 1 (Homo sapiens) (Q8N4C8 whole entry, looked up): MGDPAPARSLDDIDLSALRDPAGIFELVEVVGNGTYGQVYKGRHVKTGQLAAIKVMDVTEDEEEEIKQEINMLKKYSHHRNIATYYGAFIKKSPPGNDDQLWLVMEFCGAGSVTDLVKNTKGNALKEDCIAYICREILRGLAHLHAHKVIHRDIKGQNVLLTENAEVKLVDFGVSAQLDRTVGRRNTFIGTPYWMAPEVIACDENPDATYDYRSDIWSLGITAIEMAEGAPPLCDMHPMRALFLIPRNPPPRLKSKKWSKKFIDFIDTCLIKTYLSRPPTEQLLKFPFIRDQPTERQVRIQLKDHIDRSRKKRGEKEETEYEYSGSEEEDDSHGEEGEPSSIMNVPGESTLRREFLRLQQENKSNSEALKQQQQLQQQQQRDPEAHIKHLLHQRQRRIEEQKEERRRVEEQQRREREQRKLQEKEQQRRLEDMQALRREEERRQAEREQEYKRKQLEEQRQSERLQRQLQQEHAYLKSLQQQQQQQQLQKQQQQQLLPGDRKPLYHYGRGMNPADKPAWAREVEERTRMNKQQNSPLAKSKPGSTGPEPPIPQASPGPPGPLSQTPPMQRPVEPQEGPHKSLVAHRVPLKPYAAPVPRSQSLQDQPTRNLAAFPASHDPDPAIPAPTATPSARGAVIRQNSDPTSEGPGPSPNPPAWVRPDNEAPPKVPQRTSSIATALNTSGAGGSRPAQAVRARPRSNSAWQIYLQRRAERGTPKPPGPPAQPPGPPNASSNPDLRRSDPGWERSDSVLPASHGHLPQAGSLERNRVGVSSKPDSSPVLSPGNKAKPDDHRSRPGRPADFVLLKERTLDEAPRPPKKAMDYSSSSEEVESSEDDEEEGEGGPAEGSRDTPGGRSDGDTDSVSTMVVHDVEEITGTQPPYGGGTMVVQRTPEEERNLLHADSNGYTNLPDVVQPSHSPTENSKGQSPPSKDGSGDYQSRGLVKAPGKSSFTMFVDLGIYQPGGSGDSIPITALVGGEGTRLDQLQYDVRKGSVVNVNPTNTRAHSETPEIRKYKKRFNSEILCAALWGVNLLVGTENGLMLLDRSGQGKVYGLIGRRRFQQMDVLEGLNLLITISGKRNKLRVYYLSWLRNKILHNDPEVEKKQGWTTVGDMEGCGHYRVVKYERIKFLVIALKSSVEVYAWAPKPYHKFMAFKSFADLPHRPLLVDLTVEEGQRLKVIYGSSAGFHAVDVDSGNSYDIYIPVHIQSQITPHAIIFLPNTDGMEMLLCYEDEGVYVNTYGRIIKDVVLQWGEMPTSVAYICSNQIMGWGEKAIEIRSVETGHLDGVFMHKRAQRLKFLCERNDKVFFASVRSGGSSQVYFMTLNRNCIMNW

[4] = molecular target: Mitogen-activated protein kinase kinase kinase 10 (Homo sapiens) (UniProt Q02779); experiment: Inhibition of MLK2 (unknown origin) at 10 uM after 120 mins P33 radiolabeled kinase activity assay
[5] = molecular target: Serine/threonine-protein kinase MRCK alpha (Homo sapiens) (UniProt Q5VT25); experiment: Inhibition of MRCKalpha (unknown origin) at 10 uM after 120 mins P33 radiolabeled kinase activity assay
[6] = molecular target: STE20/SPS1-related proline-alanine-rich protein kinase (Homo sapiens) (UniProt Q9UEW8); experiment: Inhibition of STK39 (unknown origin) at 10 uM after 120 mins P33 radiolabeled kinase activity assay
[7] = molecular target: T1, Serine/threonine-protein kinase TAO3 (Homo sapiens) (UniProt Q9H2K8); experiment: Inhibition of TAOK3 (unknown origin) at 10 uM after 120 mins P33 radiolabeled kinase activity assay
T1 sequence (whole entry): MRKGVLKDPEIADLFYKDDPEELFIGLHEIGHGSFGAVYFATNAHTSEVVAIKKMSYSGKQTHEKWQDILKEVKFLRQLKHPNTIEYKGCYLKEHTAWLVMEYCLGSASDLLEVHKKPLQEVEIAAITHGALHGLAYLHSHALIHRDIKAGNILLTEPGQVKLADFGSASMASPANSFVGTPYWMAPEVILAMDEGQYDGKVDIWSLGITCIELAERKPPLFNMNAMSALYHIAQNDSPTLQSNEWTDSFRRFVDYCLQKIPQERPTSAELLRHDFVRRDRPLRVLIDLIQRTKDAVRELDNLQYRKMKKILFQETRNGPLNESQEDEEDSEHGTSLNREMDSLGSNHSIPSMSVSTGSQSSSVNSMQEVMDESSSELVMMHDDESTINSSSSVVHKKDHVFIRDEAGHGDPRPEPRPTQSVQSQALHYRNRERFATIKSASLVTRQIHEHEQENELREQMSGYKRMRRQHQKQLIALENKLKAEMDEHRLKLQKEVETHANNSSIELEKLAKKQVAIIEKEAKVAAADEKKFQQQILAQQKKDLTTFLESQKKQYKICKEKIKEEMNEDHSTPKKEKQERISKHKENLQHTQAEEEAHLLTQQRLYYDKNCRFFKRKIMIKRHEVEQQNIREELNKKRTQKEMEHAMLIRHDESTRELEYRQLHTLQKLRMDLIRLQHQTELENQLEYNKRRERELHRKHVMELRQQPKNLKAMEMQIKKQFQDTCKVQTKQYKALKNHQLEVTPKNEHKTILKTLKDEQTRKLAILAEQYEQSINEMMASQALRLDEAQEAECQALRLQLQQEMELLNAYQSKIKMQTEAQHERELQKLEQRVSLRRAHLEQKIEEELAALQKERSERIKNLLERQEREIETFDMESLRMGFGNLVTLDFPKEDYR

[8] = molecular target: T2, Serine/threonine-protein kinase VRK1 (Homo sapiens) (UniProt Q99986); experiment: Inhibition of VRK1 (unknown origin) at 10 uM after 120 mins P33 radiolabeled kinase activity assay
T2 sequence (whole entry): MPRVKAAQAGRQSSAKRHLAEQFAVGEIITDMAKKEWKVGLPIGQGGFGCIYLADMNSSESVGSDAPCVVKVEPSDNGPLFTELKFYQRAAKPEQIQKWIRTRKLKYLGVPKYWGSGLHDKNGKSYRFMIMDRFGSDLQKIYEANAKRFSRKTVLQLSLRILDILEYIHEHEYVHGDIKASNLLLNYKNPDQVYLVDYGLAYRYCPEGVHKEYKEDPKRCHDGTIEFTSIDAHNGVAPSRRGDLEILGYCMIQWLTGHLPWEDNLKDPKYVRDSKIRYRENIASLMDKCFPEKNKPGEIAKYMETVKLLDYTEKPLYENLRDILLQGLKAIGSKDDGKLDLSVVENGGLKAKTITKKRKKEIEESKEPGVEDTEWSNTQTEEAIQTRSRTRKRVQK

[9] = molecular target: T3, Serine/threonine-protein kinase A-Raf (Homo sapiens) (UniProt P10398); experiment: Inhibition of ARAF (unknown origin) at 10 uM after 120 mins P33 radiolabeled kinase activity assay
T3 sequence (whole entry): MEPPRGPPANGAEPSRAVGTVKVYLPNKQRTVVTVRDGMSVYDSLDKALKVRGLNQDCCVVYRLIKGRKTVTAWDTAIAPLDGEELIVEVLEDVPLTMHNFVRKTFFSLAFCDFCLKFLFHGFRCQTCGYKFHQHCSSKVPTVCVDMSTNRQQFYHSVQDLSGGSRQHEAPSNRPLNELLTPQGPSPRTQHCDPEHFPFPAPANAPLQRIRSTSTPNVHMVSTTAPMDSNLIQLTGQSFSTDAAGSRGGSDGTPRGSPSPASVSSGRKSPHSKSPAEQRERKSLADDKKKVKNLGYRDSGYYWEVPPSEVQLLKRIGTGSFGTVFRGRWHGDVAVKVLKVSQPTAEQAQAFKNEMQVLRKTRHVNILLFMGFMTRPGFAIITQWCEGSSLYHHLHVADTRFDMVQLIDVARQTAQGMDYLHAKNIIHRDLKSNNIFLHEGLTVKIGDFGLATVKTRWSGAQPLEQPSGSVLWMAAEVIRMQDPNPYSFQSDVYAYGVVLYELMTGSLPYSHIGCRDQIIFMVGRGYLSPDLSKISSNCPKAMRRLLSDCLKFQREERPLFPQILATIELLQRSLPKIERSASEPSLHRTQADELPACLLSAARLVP

[10] = molecular target: Tyrosine-protein kinase receptor UFO (Homo sapiens) (UniProt P30530); experiment: Inhibition of AXL (unknown origin) at 10 uM after 120 mins P33 radiolabeled kinase activity assay
Sequence of Tyrosine-protein kinase receptor UFO (Homo sapiens) (P30530 whole entry): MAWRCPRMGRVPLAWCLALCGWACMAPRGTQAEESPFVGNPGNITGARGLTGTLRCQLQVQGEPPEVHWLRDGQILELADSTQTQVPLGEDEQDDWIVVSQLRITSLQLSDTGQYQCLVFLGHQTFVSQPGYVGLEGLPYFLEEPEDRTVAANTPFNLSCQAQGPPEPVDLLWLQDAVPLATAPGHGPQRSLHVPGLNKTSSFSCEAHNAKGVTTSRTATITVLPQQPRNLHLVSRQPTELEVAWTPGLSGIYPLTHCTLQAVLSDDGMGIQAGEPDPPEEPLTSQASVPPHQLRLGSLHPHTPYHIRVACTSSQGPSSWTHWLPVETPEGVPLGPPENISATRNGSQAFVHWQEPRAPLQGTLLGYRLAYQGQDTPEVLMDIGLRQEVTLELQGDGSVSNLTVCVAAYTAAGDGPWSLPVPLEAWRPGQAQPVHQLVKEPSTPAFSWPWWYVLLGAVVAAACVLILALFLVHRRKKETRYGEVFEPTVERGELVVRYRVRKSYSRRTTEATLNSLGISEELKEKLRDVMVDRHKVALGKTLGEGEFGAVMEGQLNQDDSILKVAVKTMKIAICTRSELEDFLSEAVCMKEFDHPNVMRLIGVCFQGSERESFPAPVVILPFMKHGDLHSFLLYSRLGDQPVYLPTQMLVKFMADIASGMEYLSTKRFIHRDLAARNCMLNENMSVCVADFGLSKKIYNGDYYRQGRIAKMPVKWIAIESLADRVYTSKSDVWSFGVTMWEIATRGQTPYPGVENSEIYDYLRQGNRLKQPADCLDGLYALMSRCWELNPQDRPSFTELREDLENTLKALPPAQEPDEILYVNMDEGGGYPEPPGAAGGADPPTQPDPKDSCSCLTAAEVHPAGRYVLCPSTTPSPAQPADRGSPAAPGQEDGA

[11] = molecular target: Proto-oncogene tyrosine-protein kinase Src (Homo sapiens) (UniProt P12931); experiment: Inhibition of c-Src (unknown origin) at 10 uM after 120 mins P33 radiolabeled kinase activity assay
Sequence of Proto-oncogene tyrosine-protein kinase Src (Homo sapiens) (P12931 2-536 limits assumed): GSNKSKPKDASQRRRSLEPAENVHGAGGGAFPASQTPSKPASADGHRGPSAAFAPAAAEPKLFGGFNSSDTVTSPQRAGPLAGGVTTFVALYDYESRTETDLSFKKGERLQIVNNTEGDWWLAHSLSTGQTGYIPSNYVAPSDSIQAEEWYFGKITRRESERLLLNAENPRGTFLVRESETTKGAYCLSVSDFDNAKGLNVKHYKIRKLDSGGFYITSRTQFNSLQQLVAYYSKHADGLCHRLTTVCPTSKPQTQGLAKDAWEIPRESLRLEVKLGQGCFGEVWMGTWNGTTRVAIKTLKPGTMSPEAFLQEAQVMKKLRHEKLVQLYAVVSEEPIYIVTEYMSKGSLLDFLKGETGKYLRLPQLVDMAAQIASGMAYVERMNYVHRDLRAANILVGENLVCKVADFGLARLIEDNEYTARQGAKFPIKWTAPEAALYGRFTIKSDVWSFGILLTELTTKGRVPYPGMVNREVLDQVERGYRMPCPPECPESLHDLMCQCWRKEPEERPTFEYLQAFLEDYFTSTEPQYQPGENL

[12] = molecular target: Cyclin-dependent kinase 5/CDK5 activator 1 (Homo sapiens) (UniProt Q00535+Q15078); experiment: Inhibition of CDK5/p35 (unknown origin) at 10 uM after 120 mins P33 radiolabeled kinase activity assay; format: protein-complex assay
[13] = molecular target: Casein kinase I isoform delta (Homo sapiens) (UniProt P48730); experiment: Inhibition of CK1delta (unknown origin) at 10 uM after 120 mins P33 radiolabeled kinase activity assay
Sequence of Casein kinase I isoform delta (Homo sapiens) (P48730 whole entry, looked up, canonical isoform): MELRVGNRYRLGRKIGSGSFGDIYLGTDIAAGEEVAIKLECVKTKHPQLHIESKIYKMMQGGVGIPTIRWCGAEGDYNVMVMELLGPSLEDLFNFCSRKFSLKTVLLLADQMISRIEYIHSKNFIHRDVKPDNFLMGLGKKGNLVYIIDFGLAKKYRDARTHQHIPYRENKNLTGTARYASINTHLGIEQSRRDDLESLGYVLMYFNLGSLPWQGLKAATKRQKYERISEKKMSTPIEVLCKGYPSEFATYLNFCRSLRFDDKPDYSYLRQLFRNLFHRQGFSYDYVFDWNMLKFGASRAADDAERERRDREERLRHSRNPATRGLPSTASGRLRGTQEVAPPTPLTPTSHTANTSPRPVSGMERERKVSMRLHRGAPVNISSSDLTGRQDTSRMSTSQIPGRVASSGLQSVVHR

[14] = molecular target: Casein kinase I isoform epsilon (Homo sapiens) (UniProt P49674); experiment: Inhibition of CK1epsilon (unknown origin) at 10 uM after 120 mins P33 radiolabeled kinase activity assay
Sequence of Casein kinase I isoform epsilon (Homo sapiens) (P49674 whole entry, looked up, canonical isoform): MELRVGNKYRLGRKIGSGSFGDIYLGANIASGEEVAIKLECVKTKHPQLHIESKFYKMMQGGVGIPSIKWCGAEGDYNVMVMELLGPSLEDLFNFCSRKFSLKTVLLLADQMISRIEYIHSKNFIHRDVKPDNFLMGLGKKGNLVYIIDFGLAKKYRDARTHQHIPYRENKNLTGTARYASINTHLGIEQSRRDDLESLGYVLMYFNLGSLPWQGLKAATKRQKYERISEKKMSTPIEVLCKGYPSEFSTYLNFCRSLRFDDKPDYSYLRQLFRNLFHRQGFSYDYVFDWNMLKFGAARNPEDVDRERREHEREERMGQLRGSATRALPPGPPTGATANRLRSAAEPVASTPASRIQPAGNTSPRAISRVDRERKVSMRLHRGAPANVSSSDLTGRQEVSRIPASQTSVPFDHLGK

Sequence of Homeodomain-interacting protein kinase 3 (Homo sapiens) (Q9H422 whole entry, looked up): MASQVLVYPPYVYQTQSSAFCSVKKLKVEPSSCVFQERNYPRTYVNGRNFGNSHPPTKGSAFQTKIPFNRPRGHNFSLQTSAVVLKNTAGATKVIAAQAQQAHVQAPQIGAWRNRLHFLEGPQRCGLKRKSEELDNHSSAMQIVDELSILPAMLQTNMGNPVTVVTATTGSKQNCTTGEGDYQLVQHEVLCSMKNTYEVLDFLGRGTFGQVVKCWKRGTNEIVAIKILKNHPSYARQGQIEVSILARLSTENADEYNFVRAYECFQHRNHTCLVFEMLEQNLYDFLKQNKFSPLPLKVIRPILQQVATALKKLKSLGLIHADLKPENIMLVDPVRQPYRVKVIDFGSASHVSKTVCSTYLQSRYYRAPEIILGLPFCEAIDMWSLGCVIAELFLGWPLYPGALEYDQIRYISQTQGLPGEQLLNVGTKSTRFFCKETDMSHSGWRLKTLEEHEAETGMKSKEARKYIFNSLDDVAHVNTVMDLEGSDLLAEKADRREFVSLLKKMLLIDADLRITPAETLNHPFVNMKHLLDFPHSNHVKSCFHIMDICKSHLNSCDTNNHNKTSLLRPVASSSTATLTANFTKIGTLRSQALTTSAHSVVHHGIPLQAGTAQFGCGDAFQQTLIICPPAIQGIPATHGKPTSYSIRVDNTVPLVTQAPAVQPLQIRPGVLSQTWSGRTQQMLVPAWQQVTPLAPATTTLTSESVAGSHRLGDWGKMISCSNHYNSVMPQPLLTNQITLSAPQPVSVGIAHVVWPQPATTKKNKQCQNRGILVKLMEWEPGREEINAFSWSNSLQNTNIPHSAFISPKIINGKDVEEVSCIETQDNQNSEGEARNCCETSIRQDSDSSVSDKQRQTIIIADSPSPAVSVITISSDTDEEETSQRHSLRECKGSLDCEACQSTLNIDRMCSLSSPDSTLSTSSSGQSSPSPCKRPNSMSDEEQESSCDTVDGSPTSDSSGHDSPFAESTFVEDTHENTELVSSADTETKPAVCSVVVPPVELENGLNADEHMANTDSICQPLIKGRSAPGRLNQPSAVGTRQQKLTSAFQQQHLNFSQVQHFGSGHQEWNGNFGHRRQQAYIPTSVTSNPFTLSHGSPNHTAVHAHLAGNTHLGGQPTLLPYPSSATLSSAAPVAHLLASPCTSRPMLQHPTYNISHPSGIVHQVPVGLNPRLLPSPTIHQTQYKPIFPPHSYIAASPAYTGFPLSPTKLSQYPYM

Row | inhibition [1] [%] | inhibition [2] [%] | inhibition [3] [%] | inhibition [4] [%] | inhibition [5] [%] | inhibition [6] [%] | inhibition [7] [%] | inhibition [8] [%] | inhibition [9] [%] | inhibition [10] [%] | inhibition [11] [%] | inhibition [12] [%] | inhibition [13] [%] | inhibition [14] [%] | SMILES
1 | 3.91 | 1.52 | 60.7 | 8.79 | 8.76 | 6.77 | -0.26 | 3.79 | 75.8 | 7.68 | 81.1 | 0.14 | 77.8 | 44.4 | COCCNC(=O)c1ccc2c(c1)nc(-c1cnc(-c3ccc(Cl)cc3)[nH]1)n2CCOC
2 | 89.4 | 7.04 | 62.5 | 102 | 13 | 28.6 | 26.7 | 15.4 | 97.7 | 82.1 | 99.1 | 94.7 | 20.5 | 36.8 | CS(=O)(=O)c1cccc(Nc2nccc(-c3sc(N4CCOCC4)nc3-c3cccc(NS(=O)(=O)c4c(F)cccc4F)c3)n2)c1
3 | 45.5 | 2.47 | 100 | 39.5 | 30.5 | 52.4 | 51 | 14 | 96.2 | 86.6 | 85.8 | 57.3 | 13.5 | 5.92 | CC(C)(C)c1cc(NC(=O)Nc2ccc(Oc3ccncc3)cc2)no1
